row,Compound,melting point [°C]
1,"CCOCc1nc2c(N)nc3c(c2n1NC(C)C)CCCC3 [Example 11, 2-Ethoxymethyl-N^1-isopropyl-6,7,8,9-tetrahydro-1H-imidazo[4,5-c]quinoline-1,4-diamine]",144 to 146
2,"CCOCc1nc2c(N)nc3ccccc3c2n1NC1CCCCC1 [Example 6, N^1-Cyclohexyl-2-(ethoxymethyl)-1H-imidazo[4,5-c]quinoline-1,4-diamine]",143 to 145
3,"CCOCc1nc2c(N)nc3ccccc3c2n1NCCCNC(=O)Nc1ccccc1 [Example 15, 1-{3-[(4-Amino-2-ethoxymethyl-1H-imidazo[4,5-c]quinolin-1-yl)amino]propyl}-3-phenylurea]",177 to 179
4,"CCNC(=O)NCCCNn1c(COCC)nc2c(N)nc3ccccc3c21 [Example 38, 1-(3-{[4-Amino-2-(ethoxymethyl)-1H-imidazo[4,5-c]quinolin-1-yl]amino}propyl)-3-ethylurea]",138 to 141
5,"CCOCc1nc2c(N)nc3cc(OCCCNS(C)(=O)=O)ccc3c2n1NC(C)C [Example 30, N-(3-{[4-Amino-2-(ethoxymethyl)-1-(isopropylamino)-1H-imidazo[4,5-c]quinolin-7-yl]oxy}propyl)methanesulfonamide]",181 to 183
6,"CCc1nc2c(N)nc3c(c2n1NCCCNC(C)=O)CCCC3 [Example 41, N-{3-[(4-Amino-2-ethyl-6,7,8,9-tetrahydro-1H-imidazo[4,5-c]quinolin-1-yl)amino]propyl}acetamide]",175 to 176
7,"CCOCc1nc2c(N)nc3ccccc3c2n1NCCCNC(C)=O [Example 34, N-(3-{[4-Amino-2-(ethoxymethyl)-1H-imidazo[4,5-c]quinolin-1-yl]amino}propyl)acetamide]",178 to 181
8,"CCOCc1nc2c(N)nc3c(c2n1NCCCNC(=O)N1CCOCC1)CCCC3 [Example 28, N-(3-{[4-Amino-2-(ethoxymethyl)-6,7,8,9-tetrahydro-1H-imidazo[4,5-c]quinolin-1-yl]amino}propyl)morpholine-4-carboxamide]",152 to 154
9,"CCOCc1nc2c(N)nc3ccccc3c2n1NCC(C)C [Example 10, 2-Ethoxymethyl-N^1-isobutyl-1H-imidazo[4,5-c]quinoline-1,4-diamine]",137 to 140
10,"Cc1nc2c(N)nc3ccccc3c2n1NC(C)C [Example 3, N^1-Isopropyl-2-methyl-1H-imidazo[4,5-c]quinoline-1,4-diamine]",227 to 229
11,"CCOCc1nc2c(N)nc3ccccc3c2n1NCCCNS(C)(=O)=O [Example 14, N-{3-[(4-Amino-2-ethoxymethyl-1H-imidazo[4,5-c]quinolin-1-yl)amino]propyl}methanesulfonamide]",148 to 150
12,"CCOCc1nc2c(N)nc3ccccc3c2n1NCCCNC(=O)C(C)C [Example 32, N-(3-{[4-Amino-2-(ethoxymethyl)-1H-imidazo[4,5-c]quinolin-1-yl]amino}propyl)-2-methylpropanamide]",108 to 110
13,"CCOCc1nc2c(N)nc3ccccc3c2n1N(C)C [Example 7, N^1,N^1-Dimethyl-2-ethoxymethyl-1H-imidazo[4,5-c]quinoline-1,4-diamine]",213 to 215
14,"CCOCc1nc2c(N)nc3ccccc3c2n1NCc1ccccc1 [Example 4, N^1-Benzyl-2-ethoxymethyl-1H-imidazo[4,5-c]quinoline-1,4-diamine]",152 to 155
15,"CCOCc1nc2c(N)nc3ccccc3c2n1NCCC(C)C [Example 12, 2-Ethoxymethyl-N^1-(3-methylbutyl)-1H-imidazo[4,5-c]quinoline-1,4-diamine]",129 to 132
16,"CCOCc1nc2c(N)nc3ccccc3c2n1NCCCNC(=O)C1CCCC1 [Example 24, N-(3-{[4-Amino-2-(ethoxymethyl)-1H-imidazo[4,5-c]quinolin-1-yl]amino}propyl)cyclopentanecarboxamide]",75 to 77
17,"CCOCc1nc2c(N)nc3c(c2n1NCCCNC(=O)C(C)C)CCCC3 [Example 33, N-(3-{[4-Amino-2-(ethoxymethyl)-6,7,8,9-tetrahydro-1H-imidazo[4,5-c]quinolin-1-yl]amino}propyl)-2-methylpropanamide]",163 to 165
18,"CCOCc1nc2c(N)nc3c(c2n1NCCCNC(C)=O)CCCC3 [Example 37, N-(3-{[4-Amino-2-(ethoxymethyl)-6,7,8,9-tetrahydro-1H-imidazo[4,5-c]quinolin-1-yl]amino}propyl)acetamide]",198 to 200
19,"CCOCc1nc2c(N)nc3c(c2n1NCCCNC(=O)NC(C)C)CCCC3 [Example 26, 1-(3-{[4-Amino-2-(ethoxymethyl)-6,7,8,9-tetrahydro-1H-imidazo[4,5-c]quinolin-1-yl]amino}propyl)-3-isopropylurea]",185 to 187
20,"CCc1nc2c(N)nc3ccccc3c2n1NCCCNC(C)=O [Example 40, N-{3-[(4-Amino-2-ethyl-1H-imidazo[4,5-c]quinolin-1-yl)amino]propyl}acetamide]",167 to 169
21,"CCOCc1nc2c(N)nc3ccccc3c2n1NCCCNC(=O)NC(C)C [Example 25, 1-(3-{[4-Amino-2-(ethoxymethyl)-1H-imidazo[4,5-c]quinolin-1-yl]amino}propyl)-3-isopropylurea]",174 to 177
22,"CCNC(=O)NCCCNn1c(COCC)nc2c(N)nc3c(c21)CCCC3 [Example 39, 1-(3-{[4-Amino-2-(ethoxymethyl)-6,7,8,9-tetrahydro-1H-imidazo[4,5-c]quinolin-1-yl]amino}propyl)-3-ethylurea]",189 to 191
23,"CCOCc1nc2c(N)nc3ccccc3c2n1NC(CC)CC [Example 9, 2-Ethoxymethyl-N^1-(1-ethylpropyl)-1H-imidazo[4,5-c]quinoline-1,4-diamine]",125 to 128
24,"CCCCc1nc2c(N)nc3ccccc3c2n1NCc1ccccc1 [Example 2, N^1-Benzyl-2-butyl-1H-imidazo[4,5-c]quinoline-1,4-diamine]",159.3 to 160.5

# Second part, the compound after the results:
row,melting point [°C],Compound
1,245 to 247,"CCc1nc2c(N)nc3ccccc3c2n1NC(C)C [Example 36, 2-Ethyl-N^1-isopropyl-1H-imidazo[4,5-c]quinoline-1,4-diamine]"
2,181 to 184,"CCCc1nc2c(N)nc3ccccc3c2n1NC(C)C [Example 16, N^1-Isopropyl-2-propyl-1H-imidazo[4,5-c]quinoline-1,4-diamine]"
3,217 to 227,"CCCc1nc2c(N)nc3cc(-c4cccc(NS(C)(=O)=O)c4)ccc3c2n1NC(C)C [Example 27, N-{3-[4-Amino-1-(isopropylamino)-2-propyl-1H-imidazo[4,5-c]quinolin-7-yl]phenyl}methanesulfonamide]"
4,218 to 219,"CCCc1nc2c(N)nc3cc(-c4cccnc4)ccc3c2n1NC(C)C [Example 19, N^1-Isopropyl-2-propyl-7-(pyridin-3-yl)-1H-imidazo[4,5-c]quinoline-1,4-diamine]"
5,274 to 276,"CCCc1nc2c(N)nc3cc(-c4cccc(C(=O)N5CCOCC5)c4)ccc3c2n1NC(C)C [Example 29, N^1-Isopropyl-7-[3-(morpholin-4-ylcarbonyl)phenyl]-2-propyl-1H-imidazo[4,5-c]quinoline-1,4-diamine]"
6,223 to 224,"CCOCc1nc2c(N)nc3ccccc3c2n1N1CCOCC1 [Example 13, 2-Ethoxymethyl-1-(morpholin-4-yl)-1H-imidazo[4,5-c]quinolin-4-amine]"
7,162 to 164,"CCCc1nc2c(N)nc3c(c2n1NC(C)C)CCCC3 [Example 17, N^1-Isopropyl-2-propyl-6,7,8,9-tetrahydro-1H-imidazo[4,5-c]quinoline-1,4-diamine]"
8,228 to 229,"CC(C)Nn1c(CO)nc2c(N)nc3ccccc3c21 [Example 42, [4-Amino-1-(isopropylamino)-1H-imidazo[4,5-c]quinolin-2-yl]methanol]"
9,217 to 220,"CCCc1nc2c(N)nc3cc(-c4ccccc4)ccc3c2n1NC(C)C [Example 31, N^1-Isopropyl-7-phenyl-2-propyl-1H-imidazo[4,5-c]quinoline-1,4-diamine]"
10,100 to 103,"CCCc1nc2c(N)nc3cc(CCc4cccnc4)ccc3c2n1NC(C)C [Example 35, N^1-Isopropyl-2-propyl-7-(2-pyridin-3-ylethyl)-1H-imidazo[4,5-c]quinoline-1,4-diamine]"
11,157.1 to 158.7,"CCCCc1nc2c(N)nc3ccccc3c2n1NC(C)C [Example 1, 2-Butyl-N^1-isopropyl-1H-imidazo[4,5-c]quinoline-1,4-diamine]"
12,158 to 160,"CCOCc1nc2c(N)nc3ccccc3c2n1NCCCNC(=O)N1CCOCC1 [Example 23, [3-(4-Amino-2-ethoxymethyl-1H-imidazo[4,5-c]quinolin-1-ylamino)propyl]morpholine-4-carboxamide]"
13,194 to 196,"CCOCc1nc2c(N)nc3cc(OCc4ccccc4)ccc3c2n1NC(C)C [Example 20, 7-Benzyloxy-2-ethoxymethyl-N^1-isopropyl-1H-imidazo[4,5-c]quinoline-1,4-diamine]"
14,162 to 164,"CCOCc1nc2c(N)nc3ccccc3c2n1NC(C)C [Example 5, 2-Ethoxymethyl-N^1-isopropyl-1H-imidazo[4,5-c]quinoline-1,4-diamine]"
